Data reported in US6596687B1, “Cell adhesion inhibitors” (Biogen, Inc., priority 1995, dated 2003).
Peptide text beside a SMILES is read from it.

biological target: T1, VLA4 (Homo sapiens, UniProt P05556+P13612); test: Inhibition of VLA4-dependent adhesion of Ramos cells to BSA-CS1; type: cell-based; details: Ramos cells, BSA-CS1 coated wells, 2 mM MnCl2, 30 minutes at room temperature; read-out: IC50
T1 construct: endogenous in cells; host or cells: Ramos cells
Description: For example, the cell adhesion inhibitory activity of these compounds may be measured by determining the concentration of inhibitor required to block the binding of VLA-4-expressing cells to fibronectin- or CS1-coated plates. In this assay microtiter wells are coated with either fibronectin (containing the CS1-sequence) or CS-1. If CS-1 is used, it must be conjugated to a carrier protein, such as bovine serum albumin, in order to bind to the wells. Once the wells are coated, varying concentrations of the test compound are then added together with appropriately labelled, VLA-4-expressing cells. Alternatively, the test compound may be added first and allowed to incubate with the coated wells prior to the addition of the cells. The cells are allowed to incubate in the wells for at least 30 minutes. Following incubation, the wells are emptied and washed. Inhibition of binding is measured by quantitating the fluorescence or radioactivity bound to the plate for each of the various concentrations of test compound, as well as for controls containing no test compound.
VLA-4-expressing cells that may be utilized in this assay include Ramos cells, Jurkat cells, A375 melanoma cells, as well as human peripheral blood lymophocytes (PBLs). The cells used in this assay may be fluorescently or radioactively labelled.
This assay was used to assess the potency of VLA4-directed inhibitory compounds of this invention. 1.
We dissolved BSA-SMCC (Pierce Chemical, Rockford, Ill.; Catalog #77115) in H2O at a concentration of 10 mg/mL. [SEQ ID NO:4]: […](“Cys-Tyr-CS1 peptide”), which we synthesized by conventional solid phase chemistry and purified by HPLC, was dissolved in 10 mM HEPES pH 5, 50 mM NaCl and 0.1 mM EDTA also at a concentration of 10 mg/mL. We then mixed 500 μL of BSA-SMCC, 250 μL of Cys-Tyr-CS1 peptide and 75 μL of 1 mM HEPES pH 7.5 and allowed the conjugation reaction to proceed for 30 minutes. We stopped the reaction by adding 1 μL of beta-mercaptoethanol. Samples were analyzed for cross-linking by SDS-PAGE.
We coated the wells of a Linbro titertek polystyrene 96-well flat bottom plate (Flow Laboratories, Maclean, Va.; catalog #76-231-05) with 100 μL of the above-described BSA-CS1 solution diluted to 1 μg/mL in 0.05 M NaHCO3 (15 mM NaHCO3, 35 mM Na2CO3) pH 9.2. Some wells were not coated with CS1 in order to assess non-specific cell binding (NSB). The plate was then incubated overnight at 4° C.
Following this incubation, the contents of the wells were removed by inverting and blotting the plate. All of the wells were then blocked with 100 μL of 1% BSA in PBS, 0.02% NaN3, for a minimum of one hour at room temperature.
Ramos cells are grown, maintained and labelled in RPMI 1640 culture medium containing 1% BSA. Just prior to running the assay, we added 2′, 7′-bis-(2-carboxyethyl)-5(and -6)carboxyfluorescein acetoxymethyl ester (“BCECF-AM”; Molecular Probes Inc., Eugene, Oregon; catalog #B-1150) to a final concentration of 2 μM to a culture of Ramos cells (4×10^6 cells/mL). We incubated the cells for 20 minutes at 37° C.
Following labelling, the cells were washed twice in assay buffer (24 mM TRIS, 137 mM NaCl, 2.7 mM KCl, pH 7.4, containing 0.1 BSA and 2mM glucose) to remove any cations originating from the culture medium. The cells were then resuspended in assay buffer to 4×10^6 cells/mL and 2 mM MnCl2 was added to upregulate VLA4 on the surface of the cells.
Immediately prior to running the assay, we removed the BSA blocking solution from the 96-well plates and washed the wells with 100 μL of assay buffer. We then added to each well 25 μL of test cell adhesion inhibitory compound at 2×the final concentration and 25 μL of the labelled Ramos cells. […] Each concentration of compound was tested in triplicate. The compound and cells are allowed to incubate for 30 minutes at room temperature.

T1 sequence (P13612 34-1032): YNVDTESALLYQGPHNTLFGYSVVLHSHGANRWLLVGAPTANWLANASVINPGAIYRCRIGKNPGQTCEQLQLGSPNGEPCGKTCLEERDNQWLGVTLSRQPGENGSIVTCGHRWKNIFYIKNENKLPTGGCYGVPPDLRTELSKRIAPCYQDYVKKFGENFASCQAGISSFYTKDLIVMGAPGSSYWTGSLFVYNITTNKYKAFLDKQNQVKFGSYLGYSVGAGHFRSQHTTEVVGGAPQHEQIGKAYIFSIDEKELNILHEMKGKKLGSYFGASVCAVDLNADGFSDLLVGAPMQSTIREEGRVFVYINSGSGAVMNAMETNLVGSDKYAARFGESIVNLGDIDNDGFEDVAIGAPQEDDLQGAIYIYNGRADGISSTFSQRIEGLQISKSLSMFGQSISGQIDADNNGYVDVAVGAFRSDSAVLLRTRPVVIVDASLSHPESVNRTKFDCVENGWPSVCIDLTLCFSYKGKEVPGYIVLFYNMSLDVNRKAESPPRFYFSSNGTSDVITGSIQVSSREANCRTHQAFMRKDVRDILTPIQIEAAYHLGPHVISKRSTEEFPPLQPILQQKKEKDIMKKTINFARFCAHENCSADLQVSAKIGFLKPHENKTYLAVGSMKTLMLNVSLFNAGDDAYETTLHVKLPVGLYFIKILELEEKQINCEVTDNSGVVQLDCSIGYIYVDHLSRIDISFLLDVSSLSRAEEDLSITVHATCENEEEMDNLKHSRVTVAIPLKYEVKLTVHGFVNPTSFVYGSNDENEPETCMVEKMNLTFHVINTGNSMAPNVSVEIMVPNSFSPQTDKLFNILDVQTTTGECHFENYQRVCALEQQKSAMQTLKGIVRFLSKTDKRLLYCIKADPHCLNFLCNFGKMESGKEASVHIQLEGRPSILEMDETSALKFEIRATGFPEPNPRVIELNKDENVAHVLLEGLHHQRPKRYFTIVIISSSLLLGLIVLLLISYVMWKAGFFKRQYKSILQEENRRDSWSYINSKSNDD
T1 sequence (P05556 21-798): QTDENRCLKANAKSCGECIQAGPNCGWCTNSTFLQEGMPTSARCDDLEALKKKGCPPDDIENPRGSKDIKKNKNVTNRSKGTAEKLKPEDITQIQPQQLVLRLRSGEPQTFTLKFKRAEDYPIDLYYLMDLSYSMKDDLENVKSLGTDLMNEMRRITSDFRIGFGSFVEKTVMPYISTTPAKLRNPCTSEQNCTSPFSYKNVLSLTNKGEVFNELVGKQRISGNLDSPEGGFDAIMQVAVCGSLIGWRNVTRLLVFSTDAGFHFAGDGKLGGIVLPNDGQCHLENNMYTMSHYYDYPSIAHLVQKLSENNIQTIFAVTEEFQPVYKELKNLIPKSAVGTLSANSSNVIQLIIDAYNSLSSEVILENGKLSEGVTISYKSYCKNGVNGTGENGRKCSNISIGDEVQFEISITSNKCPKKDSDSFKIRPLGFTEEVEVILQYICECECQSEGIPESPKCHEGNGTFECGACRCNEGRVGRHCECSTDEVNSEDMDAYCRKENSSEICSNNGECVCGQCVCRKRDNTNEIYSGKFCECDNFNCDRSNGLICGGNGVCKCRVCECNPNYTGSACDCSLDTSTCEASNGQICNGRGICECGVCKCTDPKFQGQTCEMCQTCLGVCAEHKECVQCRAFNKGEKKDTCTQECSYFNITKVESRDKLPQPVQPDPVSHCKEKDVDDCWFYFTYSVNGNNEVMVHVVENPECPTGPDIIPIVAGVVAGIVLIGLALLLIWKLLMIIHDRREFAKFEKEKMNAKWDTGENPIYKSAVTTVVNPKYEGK

Row | SMILES | IC50
1 | CC(C)C[C@H](NC(=O)C1(N)CCc2ccccc2C1)C(=O)N[C@@H](CC(=O)O)C(=O)N[C@H](C(=O)O)C(C)C (some centres unmarked) [Compound 67] (HELM PEPTIDE1{[NC1(C(=O)[*:2])CCc2ccccc2C1].L.D.V}$$$$V2.0) | > 10 µM
2 | CC(C)[C@H](NC(=O)[C@H](CC(=O)O)NC(=O)OC(C)(C)C)C(=O)O [Compound 68] (HELM PEPTIDE1{[CC(C)(C)OC(=O)[*:2]].D.V}$$$$V2.0) | > 10 µM
3 | CC(C)C[C@H](NC(=O)c1cc2ccccc2cn1)C(=O)N[C@@H](CC(=O)O)C(=O)N[C@H](C(=O)O)C(C)C [Compound 69] | > 10 µM
4 | CC(C)[C@H](NC(=O)[C@H](CC(=O)O)NC(=O)c1cc2ccccc2cn1)C(=O)O [Compound 70] | > 10 µM
5 | CC(C)[C@H](NC(=O)[C@H](CC(=O)O)NC(=O)C1Cc2ccccc2CN1)C(=O)O (some centres unmarked) [Compound 71] (HELM PEPTIDE1{[O=C(C1Cc2ccccc2CN1)[*:2]].D.V}$$$$V2.0) | > 10 µM
6 | CC(C)C[C@H](NC(=O)C1CCc2ccccc2C1)C(=O)N[C@@H](CC(=O)O)C(=O)N[C@H](C(=O)O)C(C)C (some centres unmarked) [Compound 73] | > 10 µM
7 | CC(C)[C@H](NC(=O)[C@H](CC(=O)O)NC(=O)C1CCc2ccccc2C1)C(=O)O (some centres unmarked) [Compound 75] | > 10 µM
8 | CC(C)[C@H](NC(=O)[C@H](CC(=O)O)NC(=O)CCCCc1ccccc1)C(=O)O [Compound 76] | > 10 µM
9 | CC(C)C[C@H](NC(=O)c1ccccn1)C(=O)N[C@@H](CC(=O)O)C(=O)N[C@H](C(=O)O)C(C)C [Compound 77] | > 10 µM
10 | CC(C)[C@H](NC(=O)[C@H](CC(=O)O)NC(=O)c1ccccn1)C(=O)O [Compound 78] | > 10 µM
11 | CC(C)C[C@H](NC(=O)C1CCOC1)C(=O)N[C@@H](CC(=O)O)C(=O)N[C@H](C(=O)O)C(C)C (some centres unmarked) [Compound 79] | > 10 µM
12 | CC(C)C[C@H](NC(=O)C1CCCO1)C(=O)N[C@@H](CC(=O)O)C(=O)N[C@H](C(=O)O)C(C)C (some centres unmarked) [Compound 80] | > 10 µM
13 | CC(C)[C@H](NC(=O)[C@H](CC(=O)O)NC(=O)[C@H](Cc1ccccc1)NC(=O)c1cc2ccccc2cn1)C(=O)O [Compound 81] | > 10 µM
14 | O=C(O)C[C@H](NC(=O)c1cc2ccccc2cn1)C(=O)N[C@@H](Cc1ccccc1)C(=O)O [Compound 87] | > 10 µM
15 | CC(C)C[C@H](NC(=O)[C@H](CC(=O)O)NC(=O)C1Cc2ccccc2CN1)C(=O)O (some centres unmarked) [Compound 88] (HELM PEPTIDE1{[O=C(C1Cc2ccccc2CN1)[*:2]].D.L}$$$$V2.0) | > 10 µM
16 | CC(C)C[C@H](NC(=O)[C@H](CC(=O)O)NC(=O)c1cc2ccccc2cn1)C(=O)O [Compound 89] | > 10 µM
17 | CC(C)C[C@H](NC(=O)[C@H](CC(=O)O)NC(=O)[C@H](CC(C)C)NC(=O)C1Cc2ccccc2CN1)C(=O)O (some centres unmarked) [Compound 90] (HELM PEPTIDE1{[O=C(C1Cc2ccccc2CN1)[*:2]].L.D.L}$$$$V2.0) | > 10 µM
18 | CC(C)C[C@H](NC(=O)[C@H](CC(=O)O)NC(=O)[C@H](CC(C)C)NC(=O)c1cc2ccccc2cn1)C(=O)O [Compound 91] | > 10 µM
19 | CC(C)C[C@H](NC(=O)C1Cc2ccccc2CN1)C(=O)N[C@@H](CC(=O)O)C(=O)N[C@@H](Cc1ccccc1)C(=O)O (some centres unmarked) [Compound 92] (HELM PEPTIDE1{[O=C(C1Cc2ccccc2CN1)[*:2]].L.D.F}$$$$V2.0) | > 10 µM
20 | CC(C)C[C@H](NC(=O)c1cc2ccccc2cn1)C(=O)N[C@@H](CC(=O)O)C(=O)N[C@@H](Cc1ccccc1)C(=O)O [Compound 93] | > 10 µM
21 | CC(C)C[C@H](NC(=O)c1ccc2ccccc2n1)C(=O)N[C@@H](CC(=O)O)C(=O)N[C@H](C(=O)O)C(C)C [Compound 94] | > 10 µM
22 | CC(C)C[C@H](NC(=O)CC(c1ccccc1)c1ccccc1)C(=O)N[C@@H](CC(=O)O)C(=O)N[C@H](C(=O)O)C(C)C [Compound 95] | > 10 µM
23 | CC(C)[C@H](NC(=O)[C@H](CC(=O)O)NC(=O)[C@H](C)NC(=O)C1Cc2ccccc2CN1)C(=O)O (some centres unmarked) [Compound 96] (HELM PEPTIDE1{[O=C(C1Cc2ccccc2CN1)[*:2]].A.D.V}$$$$V2.0) | > 10 µM
